{"source": "patent US10813914B2", "about": "“Composition for controlling microsporidia in fishes and method for controlling microsporidia in fishes using same” (MARUHA NICHIRO CORPORATION, priority 2016, dated 2020)", "key": {"[1]": {"tested_on": "microsporidian cyst (beko cyst), beko disease", "experiment": "Prevention test of beko disease in Kanpachi using triclabendazole (1-8)", "format": "in vivo, “Kanpachi” (great amberjack)", "conditions": "40 mg/kg Bw oral, 6 times/week", "method": "A Prevention test of the beko disease in “Kanpachi” was carried out using triclabendazole. The preliminary test was performed according to the following procedure:\nTest number: Live 1000 fishes (each initial body weight: 50 g)\n(§1) Administration method: oral administration (feed together with spreading agent)\nDrug used: triclabendazole (compound represented by the above-described formula (10))\nAdministration amount: 40 mg/kg Bw (40 mg per kg of fish body weight)\n(§2) Administration interval: 6 times/week\nSampling test procedure: same as in the above-described 1-1"}, "[2]": {"tested_on": "microsporidia", "conditions": "culture test, Non-Patent Documents 3 to 7; cited from earlier work"}, "[3]": {"tested_on": "Glugea plecoglossi", "conditions": "glugeosis of Ayu, Non-Patent Document 1; cited from earlier work"}, "[4]": {"tested_on": "Heterosporis anguillarum", "conditions": "beko disease of eels, Non-Patent Document 2; cited from earlier work"}, "[5]": {"tested_on": "microsporidian cyst (beko cyst), beko disease", "experiment": "Prevention test of beko disease in Mojako using flubendazole (1-2)", "format": "in vivo, “Mojako” (yellowtail larva)", "conditions": "20 mg/kg Bw oral, 6 times/week, 4 weeks, 10 fishes tested; for Positive average per fish (average number of beko cyst per fish): p < 0.05 vs control", "method": "1-2. Prevention Test of Beko Disease in “Mojako” Using Flubendazole\nA preliminary test was carried out according to the following procedure:\n(§3) Test number: Live 1000 fishes (each initial body weight: 12 g)\nas §1\nDrug used: flubendazole (compound represented by the above-described formula (6))\n(§4) Administration amount: 20 mg/kg Bw (20 mg per kg of fish body weight)\nas §2\nSampling test procedure: same as above 1-1"}, "[6]": {"tested_on": "microsporidian cyst (beko cyst), beko disease", "experiment": "Prevention test of beko disease in Mojako using fenbendazole (1-1)", "format": "in vivo, “Mojako” (yellowtail larva)", "conditions": "20 mg/kg Bw oral, 6 times/week, 6 weeks, 10 fishes tested; for Positive average per fish (average number of beko cyst per fish): p < 0.05 vs control", "method": "1-1: Prevention Test of Beko Disease in “Mojako” Using Fenbendazole\nThe prevention test was conducted according to the following procedure.\nas §3, §1\nDrug used: fenbendazole (compound represented by the above-described formula (1))\nas §4\nInterval between administration: 6 times/week\nA sampling test was carried out according to the following procedure:\nSix weeks after the start of administration, each 10 fishes of “Mojako” were taken out from each test group (a control group (the test was conducted under the same conditions as the above-described test conditions, except that the feed fed contained no fenbendazole) and a fenbendazole group), and each fish was cut into three pieces. It was then visually tested whether the microsporidian cyst (beko cyst) was found in the pieces. When the beko cyst was observed, it was judged as positive and the results were accumulated. Regarding the beko cyst that could be confirmed with the naked eye, the number was confirmed and the average infection number per one fish was determined."}}, "note": "Marks after values point to notes of the source that are not given here.", "data": [{"compound": "CSc1nc2cc(Cl)c(Oc3cccc(Cl)c3Cl)cc2[nH]1", "note": "[Triclabendazole, triclabendazole]", "values": [{"measurement": "Positive fishes (beko cyst) / fishes sampled", "setting": "[1]; 8 Weeks, p < 0.001, 40 mg/kg", "result": "0/50***"}, {"measurement": "Positive fishes (beko cyst) / fishes sampled", "setting": "[1]; 8 Weeks, p < 0.001, listed as triclabendazole, 40 mg/kg", "result": "significantly suppressed generation of the beko cyst"}, {"measurement": "Positive fishes (beko cyst) / fishes sampled", "setting": "[1]; at administration start time", "result": "0/20"}]}, {"compound": "CO[C@@H]1[C@H](OC(=O)/C=C/C=C/C=C/C=C/C(=O)O)CC[C@]2(CO2)[C@H]1[C@@]1(C)O[C@@H]1CC=C(C)C", "note": "[fumagillin]", "values": [{"measurement": "Antimicrobial activity against microsporidia", "setting": "[2]", "result": "high antimicrobial activity"}, {"measurement": "Therapeutic efficacy", "setting": "[3]", "result": "high therapeutic efficacy was recognized"}, {"measurement": "Therapeutic efficacy", "setting": "[4]", "result": "high therapeutic efficacy was recognized"}]}, {"compound": "COC(=O)Nc1nc2cc(C(=O)c3ccc(F)cc3)ccc2[nH]1", "note": "[Flubendazole, flubendazole]", "values": [{"measurement": "Number of Beko cyst", "setting": "[5]", "result": 10}, {"measurement": "Number of positive fishes", "setting": "[5]", "result": 5}, {"measurement": "Positive average per fish (average number of beko cyst per fish)", "setting": "[5]", "result": "1.0 ± 1.1"}, {"measurement": "Positive average per fish (average number of beko cyst per fish)", "setting": "[5]; listed as flubendazole", "result": "1.0±1.1"}]}, {"compound": "COC(=O)Nc1nc2cc(Sc3ccccc3)ccc2[nH]1", "note": "[Fenbendazole, fenbendazole]", "values": [{"measurement": "Number of Beko cyst", "setting": "[6]", "result": 30}, {"measurement": "Number of positive fishes", "setting": "[6]", "result": 6}, {"measurement": "Positive average per fish (average number of beko cyst per fish)", "setting": "[6]", "result": "3.5 ± 3.83"}, {"measurement": "Positive average per fish (average number of beko cyst per fish)", "setting": "[6]; listed as fenbendazole", "result": "3.5±3.83"}]}]}
